Data on 14 compounds can be found in publication PMC10511752, “Natural product-inspired synthesis of coumarin–chalcone hybrids as potential anti-breast cancer agents” (Frontiers in Pharmacology, 2023).

The subject of one data set is tubulin. Further details: method as in Miller et al., 1997. The conditions noted are these: ref Miller et al., 1997; read-out: IC50, inhibition of polymerization of tubulin; cited from earlier work.
The test system of data set [1] is MCF-7 (breast cancer) cells. Briefly: MTT cell proliferation assay, MCF-7. Type of data set: cell-based. As to conditions: Homo sapiens, MCF7, MCF-7 (ER +ve), 48 h, read-out: IC50 values (mean ± SEM) MCF-7.
Experimental: (§3) MCF-7, MDA-MB231, and HEK293 cell lines were purchased from ATCC (Manassas, VA, United States). […] They were maintained in Dulbecco’s modified Eagle medium (DMEM) supplemented with 10% fetal bovine serum (FBS). Cells were cultured at 37°C and 5% CO2. Before the experiments, cells were cultured in phenol red-free DMEM supplemented with 10% charcoal stripped fetal bovine serum.
In data set [2] the test system is MDA-MB-231 (breast cancer) cells. Briefly: MTT cell proliferation assay, MDA-MB-231. The format is cell-based. The conditions noted are these: Homo sapiens, MDA-MB-231 (ER -ve), 48 h, read-out: IC50 values (mean ± SEM) MDA-MB-231. For orientation: Tetrazolium assays rely on reduction of a dye to a coloured formazan, in cell work by metabolically active cells.
Experimental: as §3
For data set [3], the system named is Ishikawa (endometrial cancer) cells. Briefly: MTT cell proliferation assay, Ishikawa. Type of data set: cell-based. The conditions noted are these: Homo sapiens, 48 h, read-out: IC50 values (mean ± SEM) Ishikawa. Here is the method:
(§1) We conducted an in vitro MTT assay to evaluate the anti-cancer activity of the synthesized neo-tanshinlactone–chalcone hybrid compounds, 26–37, against four human cancer cell lines, namely, MCF-7 (breast cancer), MDA-MB-231 (breast cancer), Ishikawa (endometrial cancer), and HeLa (cervical cancer). The toxicity of the hybrid molecules on the normal human embryonic kidney cell line HEK-293 was also evaluated.
MCF-7, MDA-MB231, and HEK293 cell lines were purchased from ATCC (Manassas, VA, United States). Ishikawa cell lines were obtained from the European Collection of Cell Cultures. They were maintained in Dulbecco’s modified Eagle medium (DMEM) supplemented with 10% fetal bovine serum (FBS). Cells were cultured at 37°C and 5% CO2. Before the experiments, cells were cultured in phenol red-free DMEM supplemented with 10% charcoal stripped fetal bovine serum.
(§2) The synthesized hybrid compounds were tested for their anti-cancer activity using the MTT reduction assay on 2.5 × 10^3 cells per well that were seeded in 100 µL DMEM supplemented with 10% FBS in each well of 96-well microculture plates. After seeding, the cells were incubated for 24 h at 37°C in a CO2 incubator. The required concentrations of the compounds were achieved by diluting the solutions in the culture medium. The media was removed from the wells after 48 h, and 100 µL of MTT (0.5 mg/mL) was added to each well. The plates were then incubated for an additional 3 h. After carefully removing the supernatant from each well, the formazan crystals were dissolved in 100 µL of DMSO. The absorbance was then recorded at a wavelength of 540 nm ([Saquib et al., 2021]; [Gupta et al., 2022]; [Iqbal et al., 2023])

Data set [4] concerns HeLa (cervical cancer) cells. Briefly: MTT cell proliferation assay, HeLa. The conditions noted are these: Homo sapiens, 48 h, read-out: IC50 values (mean ± SEM) HeLa. Type of data set: cell-based. The procedure:
as §1, §2

For data set [5], the system named is normal human embryonic kidney cell line HEK-293. Briefly: MTT assay, toxicity on normal cell line HEK-293. The conditions noted are these: HEK293, normal HEK-293 cells (toxicity), 48 h, read-out: IC50 values (mean ± SEM) HEK-293. The format is cell-based.
Experimental: as §3

For the compound `COc1cc2c(ccc1=O)[C@H]1CC[C@]3(C)[C@@H](O)CC[C@H]3[C@@H]1CC2` [2-Methoxyestradiol–colchicine hybrid A], in the data set with tubulin, the IC50 is 2.1 µM.
Regarding `COc1cc2c(cc1O)CC[C@@H]1[C@@H]2CC[C@]2(C)[C@@H](O)CC[C@@H]12` [2-methoxyestradiol (2-ME), 2-methoxyestradiol], the IC50 in the data set with tubulin was 14.2 µM.
Consider `COc1cc(OC)cc(C(=O)/C=C/c2cc(=O)oc3c2ccc2ccccc23)c1` [Compound 26, (E)-4-(3-(3,5-Dimethoxyphenyl)-3-oxoprop-1-en-1-yl)-2H-benzo[h]chromen-2-one], for which the melting point lay in the range of 272 to 273 °C. For the same compound, the IC50 in data set [1] is 17.2 ± 1.75 µM. The IC50 in data set [2] was found to be 16.6 ± 1.25 µM. Also, in data set [3], the IC50 is more than 20 µM. In data set [4], the IC50 is more than 20 µM. Further, the IC50 in data set [5] is more than 20 µM.
As for `COc1ccc(C(=O)/C=C/c2cc(=O)oc3c2ccc2ccccc23)cc1` [Compound 27, (E)-4-(3-(4-Methoxyphenyl)-3-oxoprop-1-enyl)-2H-benzo[h]chromen-2-one], the IC50 in data set [1] was more than 20 µM; in data set [2] it was more than 20 µM; in data set [3], 17.4 ± 2.72 µM; in data set [4], more than 20 µM; in data set [5] it was more than 20 µM.
Regarding `COc1ccc(C(=O)/C=C/c2cc(=O)oc3c2ccc2c(OC)cccc23)cc1` [Compound 28, (E)-7-Methoxy-4-(3-(4-methoxyphenyl)-3-oxoprop-1-enyl)-2H-benzo[h]chromen-2-one], the melting point lay within 236 to 237 °C. In addition, the IC50 in data set [1] worked out at 18.6 ± 2.3 µM. In data set [2], the half-maximal inhibitory concentration (IC50) was more than 20 µM. The IC50 in data set [3] was more than 20 µM. In data set [4], the IC50 is more than 20 µM. In data set [5], the IC50 is more than 20 µM.
Turning to `COc1cccc2c1ccc1c(/C=C/C(=O)c3ccccc3)cc(=O)oc12` [Compound 29, (E)-7-Methoxy-4-(3-oxo-3-phenylprop-1-en-1-yl)-2H-benzo[h]chromen-2-one], the melting point was in the range of 180 to 182 °C. Moreover, the IC50 in data set [1] is more than 20 µM. In addition, the IC50 in data set [2] was more than 20 µM. Moreover, in data set [3], the 50% inhibitory concentration (IC50) was more than 20 µM. For the same compound, in data set [4], the IC50 is more than 20 µM. Also, the IC50 in data set [5] was more than 20 µM.
Consider `COc1cc(OC)cc(C(=O)/C=C/c2cc(=O)oc3c2ccc2c(OC)cccc23)c1` [Compound 30, (E)-4-(3-(3,5-Dimethoxyphenyl)-3-oxoprop-1-en-1-yl)-7-methoxy-2H-benzo[h]chromen-2-one], for which the concentration for half-maximal inhibition (IC50) is 6.8 ± 1.48 µM in data set [1], 8.5 ± 1.12 µM in data set [2] and more than 20 µM in data set [5].
Regarding `COc1cc(C(=O)/C=C/c2cc(=O)oc3c2ccc2ccccc23)cc(OC)c1OC` [Compound 31, (E)-4-(3-Oxo-3-(3,4,5-trimethoxyphenyl)prop-1-enyl)-2H-benzo[h]chromen-2-one], the IC50 in data set [1] is 14.4 ± 1.68 µM; in data set [2] it was 15.7 ± 1.01 µM; in data set [3], more than 20 µM; in data set [4] it was more than 20 µM; in data set [5], more than 20 µM.
As for `O=C(/C=C/c1cc(=O)oc2c1ccc1ccccc12)c1ccccc1` [Compound 32, (E)-4-(3-Oxo-3-phenylprop-1-enyl)-2H-benzo[h]chromen-2-one], the melting point fell in the range of 245 to 246 °C. Further, the 50% inhibitory concentration (IC50) in data set [1] was more than 20 µM. Further, the IC50 in data set [2] is more than 20 µM. The IC50 in data set [3] was more than 20 µM. For the same compound, in data set [4], the IC50 was more than 20 µM. In data set [5], the IC50 was more than 20 µM.
Regarding `COc1cc(C(=O)/C=C/c2cc(=O)oc3c2ccc2c(OC)cccc23)cc(OC)c1OC` [Compound 33, (E)-7-Methoxy-4-(3-oxo-3-(3,4,5-trimethoxyphenyl)prop-1-enyl)-2H-benzo[h] chromen-2-one], the melting point was more than 260 °C. For the same compound, the IC50 in data set [1] was found to be 16.3 ± 2.3 µM. For the same compound, in data set [2], the 50% inhibitory concentration (IC50) was more than 20 µM. Further, the IC50 in data set [3] was more than 20 µM. Also, the IC50 in data set [4] was more than 20 µM. Further, the IC50 in data set [5] was more than 20 µM.
As to `O=C(/C=C/c1cc(=O)oc2c1ccc1ccccc12)c1ccc(Cl)cc1` [Compound 34], the IC50 in data set [1], in data set [2], in data set [3], in data set [4] and in data set [5] was more than 20 µM in each case.
Turning to `COc1cccc2c1ccc1c(/C=C/C(=O)c3ccc(Cl)cc3)cc(=O)oc12` [Compound 35], the IC50 in data set [1], in data set [2], in data set [3], in data set [4] and in data set [5] was more than 20 µM throughout.
Regarding `O=C(/C=C/c1cc(=O)oc2c1ccc1ccccc12)c1ccc(Cl)c(Cl)c1` [Compound 36], the IC50 in data set [1] was more than 20 µM; in data set [2], more than 20 µM; in data set [3], 19.2 ± 3.12 µM; in data set [4], 16.8 ± 3.14 µM; in data set [5], more than 20 µM.
In the case of `COc1cccc2c1ccc1c(/C=C/C(=O)c3ccc(Cl)c(Cl)c3)cc(=O)oc12` [Compound 37], the IC50 in data set [1] is more than 20 µM; in data set [2], more than 20 µM; in data set [3], 18.6 ± 2.56 µM; in data set [4], 17.2 ± 2.88 µM; in data set [5] it was more than 20 µM.

By IC50 is commonly meant the concentration that gives 50% inhibition. Usually melting point stands for the temperature of the solid-liquid transition.
